Experimental data: PubChem BioAssay (NCI)
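In this assay, cells in 96-well plates receive the compound at five concentrations for 48 hours. Endpoints are linearly interpolated between the surrounding concentrations. At the GI50, growth is halved. The concentration for full growth arrest is given as TGI.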

Tests used:
Assay in all cases: NCI tumour cell line growth inhibition, 48 h
SW-620 colon = test system: SW-620 colon
KM12 colon = test system: KM12 colon
CCRF-CEM leukemia = test system: CCRF-CEM leukemia
ACHN renal = test system: ACHN renal
TK-10 renal = test system: TK-10 renal
SF-295 CNS = test system: SF-295 CNS
RPMI-8226 leukemia = test system: RPMI-8226 leukemia
DU-145 prostate = test system: DU-145 prostate
MCF7 breast = test system: MCF7 breast
BT-549 breast = test system: BT-549 breast

SMILES | TGI (SW-620 colon) | TGI (KM12 colon) | TGI (CCRF-CEM leukemia) | TGI (ACHN renal) | TGI (TK-10 renal) | TGI (SF-295 CNS) | TGI (RPMI-8226 leukemia) | TGI (DU-145 prostate) | TGI (MCF7 breast) | GI50 (SW-620 colon) | GI50 (KM12 colon) | GI50 (CCRF-CEM leukemia) | GI50 (ACHN renal) | GI50 (TK-10 renal) | GI50 (SF-295 CNS) | GI50 (RPMI-8226 leukemia) | GI50 (DU-145 prostate) | GI50 (BT-549 breast) | TGI (BT-549 breast)
COc1cc(/C=N/N=C(\N)NO)c([N+](=O)[O-])cc1OC | > 100 µM | > 100 µM | > 100 µM | 86.5 µM | > 100 µM | > 100 µM | > 100 µM | – | – | – | – | – | – | – | – | – | – | – | –
C=C1C(OC(C)=O)CC(OC(C)=O)C2(C)C(OC(C)=O)C(OC(C)=O)C3=C(C)C(OC(=O)/C=C/c4ccccc4)CC(C(OC(C)=O)C12)C3(C)C (configuration not stated) | > 100 µM | > 100 µM | > 100 µM | > 100 µM | > 100 µM | > 100 µM | > 100 µM | – | – | – | – | – | – | – | – | – | – | – | –
CC1=CCCC2C(C=O)(C1)CC(C)C2(CO)CC/C(=C/CO)CO (configuration not stated) | > 100 µM | > 100 µM | > 100 µM | > 100 µM | > 100 µM | > 100 µM | > 100 µM | – | – | – | – | – | – | – | – | – | – | – | –
Nc1c2ccccc2nc2c(C(=O)Nc3ccc(S(N)(=O)=O)cc3)cccc12 | > 100 µM | > 100 µM | > 100 µM | > 100 µM | > 100 µM | > 100 µM | > 100 µM | – | – | – | – | – | – | – | – | – | – | – | –
CC(=O)Oc1ccc2c(c1)C(=O)c1nc(C)c(C)nc1C2=O | > 100 µM | > 100 µM | > 100 µM | > 100 µM | > 100 µM | > 100 µM | > 100 µM | – | – | – | – | – | – | – | – | – | – | – | –
O=C1NC2C(O)CCCCC2C12CCCCC2 (configuration not stated) | > 100 µM | > 100 µM | – | > 100 µM | – | > 100 µM | > 100 µM | – | – | – | – | – | – | – | – | – | – | – | –
Nc1ccc(/C=C/c2ccc3cccnc3c2)cc1 | > 100 µM | > 100 µM | > 100 µM | > 100 µM | > 100 µM | > 100 µM | > 100 µM | > 100 µM | > 100 µM | – | – | – | – | – | – | – | – | – | –
CC(=O)[O-].N.N.N.N.[Co+3].[O-][Cl+3]([O-])([O-])[O-].[OH3+] | > 100 µM | > 100 µM | > 100 µM | > 100 µM | > 100 µM | > 100 µM | > 100 µM | – | – | > 100 µM | > 100 µM | > 100 µM | > 100 µM | > 100 µM | > 100 µM | > 100 µM | – | – | –
COc1ccc2c(c1)CN1CCc3c(cc(OC)c(OC)c3OC)C1C2 (configuration not stated) | > 100 µM | – | > 100 µM | > 100 µM | > 100 µM | > 100 µM | > 100 µM | – | – | – | – | – | – | – | – | – | – | – | –
O=c1c2cc3ccccc3n2c(=O)c2cc3ccccc3n12 | > 100 µM | > 100 µM | > 100 µM | > 100 µM | > 100 µM | > 100 µM | > 100 µM | – | – | – | – | – | – | – | – | – | – | – | –
C[CH2][Sn]([CH2]C)([O]C(=O)c1ccc(F)cc1)[O]C(=O)c1ccc(F)cc1 | 46.7 µM | > 100 µM | 31.4 µM | 32.4 µM | 32.4 µM | > 65.7 µM | 53.9 µM | – | – | 22 µM | > 100 µM | 8.75 µM | 17.8 µM | 17.8 µM | 44.3 µM | 20.1 µM | – | – | –
O=C([O-])CC(=O)[O-].[NH-][C@@H]1CCCC[C@H]1[NH-].[Pt+4] | > 100 µM | > 100 µM | > 100 µM | > 100 µM | > 100 µM | > 100 µM | > 100 µM | > 100 µM | – | 2.1 µM | 85 µM | 4.32 µM | > 35.9 µM | > 100 µM | 39.4 µM | 1.05 µM | 93 µM | 32.8 µM | > 100 µM
CC[PH+](CC)CC.[Cl][Au] | 1.98 µM | 26 µM | 1.33 µM | 3.32 µM | 3.51 µM | 8.88 µM | 3.84 µM | – | – | 0.567 µM | 11.6 µM | 0.216 µM | 1.61 µM | 2 µM | 4.32 µM | 1.03 µM | – | – | –
O/N=C/c1ccc(O)c(O)c1 | 35.3 µM | > 100 µM | > 100 µM | > 100 µM | > 100 µM | > 100 µM | – | – | – | – | – | – | – | – | – | – | – | – | –
CC1c2[nH]c3ccccc3c2CCN1O (configuration not stated) | > 100 µM | > 100 µM | > 100 µM | > 100 µM | > 100 µM | > 100 µM | > 100 µM | – | – | – | – | – | – | – | – | – | – | – | –
COC(=O)C1CCc2nnc(-c3ccccc3)n21 (configuration not stated) | > 100 µM | > 100 µM | > 100 µM | > 100 µM | > 100 µM | > 100 µM | > 100 µM | – | – | – | – | – | – | – | – | – | – | – | –
